Assay results published in paper PMC3762901, “Cyclic Peptide Inhibitors of the β-Sliding Clamp in Staphylococcus aureus” (PLoS ONE, 2013).
Values joined by “and” are separate entries in the source; they are usually repeats but may differ in a detail not shown here. Equal values may be shown once. Read-outs that look alike come from different tables or passages of the source. Ends that are not written are not given here. Peptide text beside a SMILES is read from it.

Tests used:
[1] = tested on: S. aureus DnaN-DnaN interaction (β-sliding clamp dimerization); assay: Bacterial two-hybrid (BTH) β-galactosidase assay of DnaN-DnaN interaction; assay type: cell-based, Staphylococcus aureus; conditions: for Ability to interfere with DnaN dimerization after reduction to 8-mers: cyclic 8-mers with the sequence SXXXXXXG expressed intracellularly, not shown; for Reduction of DnaN-DnaN interaction when produced intracellularly: cyclic peptides expressed in E. coli, Fig. 3
Experimental: The library was screened for peptides able to disrupt DnaN-DnaN interaction of the Staphylococcus replisome by transforming into the R-BTH strain SC01 containing interacting Cya fusion proteins. Cells were plated on plates containing 5-FOA and 1 mM IPTG to induce expression of the cyclic peptides. We readily identified clones where expressed peptides restored cell viability in the presence of 5-FOA (Fig. 3A). To initially assess the activity of the selected peptides we determined their ability to reduce DnaN-DnaN interaction in the original two hybrid system.
Figure 3 Identification of peptides that interfere with DnaN-DnaN interaction. […] After screening of our SICLOPPS library, growth was restored in 7 clones.A. (B) The cyclic peptides identified in (A) were expressed in the original bacterial two-hybrid strain (BTH101) containing T18:DnaN and DnaN:T25 fusion plasmids and the level of β-galactosidase activity was determined as described in Materials and Methods.
Bacterial two-hybrid assay was performed as described previously. Derivatives of plasmids pUT18 and p25N encoding replication proteins were constructed by cloning PCR-amplified DNA fragments in frame with the T25 and T18 fragments of cya. T18 and T25 fusions were transformed into BTH101, and plated on plates containing 40 μg/ml of 5-bromo-4-chloro-indolyl-β-D-galactoside (X-gal) and relevant antibiotics. […] For β-galactosidase assays, cells were grown exponentially at 30°C in LB supplemented with 0.5 mM IPTG, and β-galactosidase activities were measured as described by.

[2] = tested on: S. aureus or S. epidermidis; assay type: cell-based
Text: In agreement with this none of these peptides were particularly hydrophobic or cationic (Table 4). […] This could be tested by construction of deletion mutants lacking one or more of these permeases. We synthesized and tested linear counterparts of the active peptides III-5, III-6 and III-7. […] Increased antibacterial activity of peptides due to circularization has previously been described.

[3] = target: DnaN (β), β-sliding clamp of S. aureus (S. aureus) (UniProt P0A024)
S. aureus = assay type: cell-based, Staphylococcus aureus
Experimental: (§1) The antibacterial activities of the purified peptides were determined against Staphylococcus epidermidis and S. aureus. […] We can conclude that some but not all of the identified cyclic peptides are able to penetrate the bacterial membrane to find their intracellular target. […] As expected none of the peptides isolated had any activity towards E. coli, whereas they inhibited growth of B. subtilis, another gram positive bacterium (data not shown).

S. epidermidis = assay type: cell-based, Staphylococcus epidermidis
Experimental: as §1

S. aureus strain 8325-4 = assay: Growth (colony forming units) of S. aureus with or without DnaN overproduction after peptide addition; assay type: cell-based, Staphylococcus aureus; conditions: 40 μg/ml peptide, LB, 37°C, repeated 4 times
Experimental: To ensure that the antibacterial effects of peptides III-5 and III-6 were the result of direct interaction of these peptides with the β-clamp, we decided to overproduce DnaN in S. aureus cells. The dnaN gene was cloned under control of the cadmium induclible pCAD promoter of plasmid pCN51 [37]. Cells were grown exponentially at 37°C in LB medium and 3 hours prior to peptide addition expression of dnaN was induced by addition of 10 μM CdCl2. At time T = 0 peptides III-5 or III-6 were added to a final concentration of 40 μg/ml which is very close to the MIC value for both of these peptides (Fig. 4).
Figure 4 Overproduction of DnaN in S. aureus relieves the growth inhibition imposed by peptides III-5 and […]. S. aureus strain 8325-4 containing either the vector plasmid pCN51 (black filled squares) or plasmid pSC141 (grey triangles) was grown exponentially at 37°C in LB medium supplemented with 10 μg/ml erythromycin. CdCl2 was added to all cultures to a final concentration of 10 μM to induce overproduction of DnaN from pSC141 three hours prior to peptide addition. At T = 0, 40 μg/ml of peptide III-5 (middle panel) or III-6 (bottom panel) was added to the cultures. The number of colony forming units was determined by plating. The experiment were repeated 4 times with similar results.

[4] = tested on: DNA replication in S. aureus strain 8325-4; assay: DNA synthesis, incorporation of 3H-thymidine; assay type: cell-based, Staphylococcus aureus; conditions: 50 μg/ml peptide; LB, 37°C; TCA precipitate, scintillation counting; repeated 3 times
Experimental: (§2) In order to test the direct effects of peptides III-5 and III-6 on DNA replication in S. aureus, strain 8325-4 was grown exponentially at 37°C in LB medium. Incorporation of ^3H-thymidine into the DNA was determined at various times after addition of 50 μg/ml of peptides III-5 or III-6. […] Protein synthesis, determined as incorporation of ^35S-methionine, was unaffected by peptide addition for at least 180 minutes (Fig. S1) which is well after the onset of DNA synthesis inhibition. Therefore the DNA replication inhibition is not a consequence of a more general effect on protein synthesis, and we conclude that peptide III-5 and III-6 inhibits replication by interfering with the dnaN encoded β-clamp.
Figure 5 Peptides III-5 and III-6 Inhibit DNA replication. […] Samples were taken at the indicated time-points and incorporation of ^3H into DNA was measured by liquid scintillation counting of TCA precipitated material. […]
For measuring DNA and protein synthesis, S. aureus strain 8325−4 was grown exponentially at 37°C in LB supplemented with 0.2 ml ^3H-thymidine (20 Ci/mmol,1 mCi/ml; Perkin Elmer Inc.) and uridine (50 μg/ml). […] The incorporation of ^3H into DNA was determined using a 1450 MicroBeta TriLux Microplate and Scintillation and Luminiscence counter (Perkin Elmer Inc.).

[5] = tested on: Protein synthesis in S. aureus strain 8325-4; assay: Protein synthesis, incorporation of 35S-methionine; assay type: cell-based, Staphylococcus aureus; conditions: 50 μg/ml peptide; for at least 180 minutes; repeated 3 times
Experimental: as §2
S. aureus strain 8325-4 was grown exponentially in LB supplemented with ^35S-methionine. At T=0 peptide III-5 (grey triangles) or III-6 (green squares) was added to a final concentration of 50 μg/ml. Addition of buffer (red filled circles) served as control. Samples were taken at the indicated time-points and incorporation of ^35S into protein was measured by liquid scintillation counting of TCA precipitated material. The experiment was repeated 3 times with similar result. The result from one experiment is shown.

Sequence of UniProt P0A024 (P0A024 whole entry): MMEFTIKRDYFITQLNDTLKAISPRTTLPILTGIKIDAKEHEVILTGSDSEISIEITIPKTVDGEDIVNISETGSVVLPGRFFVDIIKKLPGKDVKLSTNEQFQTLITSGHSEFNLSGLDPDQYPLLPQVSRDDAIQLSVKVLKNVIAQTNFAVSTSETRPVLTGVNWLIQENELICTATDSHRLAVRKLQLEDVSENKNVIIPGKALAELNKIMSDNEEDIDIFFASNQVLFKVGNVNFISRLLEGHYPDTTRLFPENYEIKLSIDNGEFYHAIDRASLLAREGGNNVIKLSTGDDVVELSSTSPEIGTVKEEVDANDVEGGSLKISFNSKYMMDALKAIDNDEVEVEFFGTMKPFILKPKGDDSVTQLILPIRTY

Compound: CC(C)[C@@H]1NC(=O)[C@H](Cc2c[nH]c3ccccc23)NC(=O)[C@H](C(C)C)NC(=O)[C@H](Cc2c[nH]cn2)NC(=O)CNC(=O)[C@H](CCCNC(=N)N)NC(=O)[C@H](CS)NC(=O)[C@H](CC(=O)O)NC1=O [III-7] (cyclo(CRGHVWVD))
- Ability to interfere with DnaN dimerization after reduction to 8-mers [1]: retaining their ability to interfere with DnaN dimerization
- Reduction of DnaN-DnaN interaction when produced intracellularly [1]: efficient in reducing DnaN-DnaN interaction
- MIC values (range given for the three active cyclic peptides) [2]: 20−50 μg/ml

Compound: purified cyclic peptide III-5 (CRVFLCGC)
- MIC for cyclic peptide, determined for S. aureus [3]: 50 μg/ml and 57 μM

Compound: CRGHVWVD [linear III-7]
- MIC for linear peptide (S. aureus): > 560 µg/mL

Compound: CC(C)C[C@@H]1NC(=O)[C@H](CO)NC(=O)[C@H](CCC(=O)O)NC(=O)[C@H](Cc2ccccc2)NC(=O)[C@H]([C@@H](C)O)NC(=O)[C@H](CO)NC(=O)[C@H](CCCNC(=N)N)NC(=O)[C@H](CS)NC1=O [III-8] (cyclo(CRSTFESL))
- MIC for cyclic peptide (S. aureus): > 100 µg/mL
- Reduction of DnaN-DnaN interaction when produced intracellularly [1]: efficient in reducing DnaN-DnaN interaction

Compound: CC(C)C[C@H](NC(=O)[C@@H](NC(=O)[C@H](Cc1ccccc1)NC(=O)[C@H](CC(C)C)NC(=O)[C@H](Cc1c[nH]c2ccccc12)NC(=O)[C@H](CS)NC(=O)[C@H](CCCNC(=N)N)NC(=O)[C@@H](N)CS)C(C)C)C(=O)O [linear IV-N8] (H-CRCWLFVL-OH)
- MIC for linear peptide (S. epidermidis): >1124 ^4 (>1.08) μg/ml

Compound: CRSQGLFK [linear III-6]
- MIC for linear peptide (S. aureus): > 560 µg/mL

Compound: purified cyclic peptide III-6 (CRSQGLFK)
- MIC for cyclic peptide, determined for S. aureus [3]: 50 μg/ml and 54 μM

Compound: CC(C)C[C@@H]1NC(=O)[C@H](Cc2ccccc2)NC(=O)[C@H](C(C)C)NC(=O)[C@H](CCCNC(=N)N)NC(=O)[C@H](CS)NC(=O)[C@H](CS)NC(=O)CNC(=O)[C@H](CS)NC1=O [III-5] (cyclo(CRVFLCGC))
- MIC for cyclic peptide (S. aureus; cyclic 8-mer CRXXXXXX, determined for S. aureus, highest concentration tested 100 μg/ml): 50 µg/mL
- MIC for cyclic peptide (molar) (S. aureus; cyclic 8-mer CRXXXXXX, determined for S. aureus, value in brackets): 57 µM
- Potency against S. epidermidis compared with S. aureus (S. epidermidis; cyclic peptides, data not shown): somewhat more potent against S. epidermidis
- Ability to interfere with DnaN dimerization after reduction to 8-mers [1]: retaining their ability to interfere with DnaN dimerization
- Reduction of DnaN-DnaN interaction when produced intracellularly [1]: efficient in reducing DnaN-DnaN interaction
- Bacterial growth of uninduced cultures after peptide addition (S. aureus strain 8325-4; 8 hours duration, colony forming units): cessation of bacterial growth
- Bacterial growth of cultures overproducing DnaN after peptide addition (S. aureus strain 8325-4; dnaN induced with 10 μM CdCl2 3 hours before (pSC141)): continued growth
- Accumulation of DNA (3H-thymidine incorporation) [4]: severely reduced accumulation of DNA
- Protein synthesis (35S-methionine incorporation) [5]: unaffected
- MIC values (range given for the three active cyclic peptides) ([2]; cyclic peptides, summary over S. aureus (III-5, III-6) and S. epidermidis (III-7)): 20−50 μg/ml

Compound: CC(C)C[C@H](NC(=O)[C@H](Cc1ccccc1)NC(=O)[C@@H](NC(=O)[C@H](CCCNC(=N)N)NC(=O)[C@@H](N)CS)C(C)C)C(=O)N[C@@H](CS)C(=O)NCC(=O)N[C@@H](CS)C(=O)O [linear III-5] (H-CRVFLCGC-OH)
- MIC for linear peptide (S. aureus): > 560 µg/mL

Compound: cyclo(CRCWLFVL) (cysteine pairing not given here) [IV-N8, cyclic 8-mer CRCWLFVL synthesized via FMOC SPPS]
- MIC for cyclic peptide (S. epidermidis; cyclic 8-mer CRXXXXXX, determined for S. epidermidis, highest concentration tested 100 μg/ml): > 100 µg/mL
- Ability to interfere with DnaN dimerization after reduction to 8-mers [1]: retaining their ability to interfere with DnaN dimerization
